Columns and labels:
[1] = biological target: p38α (Homo sapiens, UniProt Q16539); experiment: HTRF kinase assay (CisBio), activity-based, p38α; format: biochemical; settings: compounds HTS 1-15
[2] = biological target: T1, p38α (Homo sapiens, UniProt Q16539, A172C/C119S/C162S/F327L); experiment: HTS screen with acrylodan-labeled p38α, 384-well secondary screen for Kd; format: binding; settings: compounds HTS 1-15
T1 construct: His-tag with PreScission site (N, cleaved yes); GST (N); made in house; host or cells: E. coli BL21(DE3)
Description: The complete screen was carried out by first using the labeled kinase binding assay in a 384-well HTS format to initially screen for possible ligands for the DFG-out conformation, or DFG-out binders. This was accomplished by first performing a primary screen at a single concentration of each ligand, followed by a secondary screen over a range of concentrations to directly determine the Kd of each potential hit.
The methods for the setup and execution of the screen are provided below. […] Large volumes of the same buffer were also use to prepare solutions for pipetting background (no labeled kinase added) and screening plates (+100 nM acrylodan-labeled p38α).
An industrial pipetting robot was used to first dispense […] of pre-diluted compounds into a set of two 384-well small volume assay plates. Subsequently, 15 μl of buffer was added to the background plate while the same volume of buffer containing the labeled kinase was added to the screening plate to detect DFG-out binders. […] A Tecan Safire^2 instrument was used to measure the fluorescence read-out in the 384-well plate format.
A secondary screen was carried out also in 384-well plates using a range of concentrations (100 nM to 50 μM) of each ligand in order to generate binding curves or identify false hits which were picked up due to high degrees of fluorescence interference. […] As before, large volumes of the same buffer were also used to prepare solutions for pipetting background (no labeled kinase added) and screening plates (+100 nM acrylodan-labeled p38α). The pipetting robot was used to first dispense 3.5 μl of pre-diluted compounds into a set of two 384-well small volume assay plates. Each plate contained no more than 7 different compounds identified in the primary screen, each screened at 10 concentrations (100 nM to 50 μM) and 4 wells per concentration. Subsequently, 3.5 μl of buffer was added to the background plate while the same volume of buffer containing the labeled kinase was added to the screening plate. Plates were sealed, incubated and measured as described for the primary screen. […] An exemplary sample plate layout is shown below.
Where indicated, binding curves were also plotted as % p38α bound by the ligand. The % p38α bound is calculated as follows: […]

[3] = biological target: T1, p38α; experiment: ac-p38α real-time fluorescence measurements of binding and dissociation kinetics; settings: for t1/2 of dissociation: t1/2 = ln 2/kobs; for real-time fluorescence response upon addition to ac-p38α: cuvette method, acrylodan emission at 468 nm
Description: The conditions for such measurements are currently being further optimized (buffer, temperature, protein and inhibitor concentrations, length of incubation).
The addition of excess kinase causes the inhibitor to redistribute, resulting in a net dissociation of inhibitor from ac-p38α and a fluorescence increase which was fit to a first-order function.
After measuring koff for allosteric compounds, Applicants established conditions for measuring the kon of the same compounds. This was accomplished using the cuvette method by adding various concentrations of inhibitor to ac-p38α and fitting the fluorescence decay to a first-order function.

[4] = tested on: PC3 cells; experiment: immunoblot analysis of pSrc and pFAK in PC3 cells; format: cell-based; settings: 5 hr treatment; 11c 1, 2, 5, 10 μM, dasatinib 100 nM
Description: (§1) PC3 and DU145 were generously provided by Dr. Roman Thomas (Max Planck Institute for Neurological Research, Cologne). The cells were cultured in Dulbecco's modified Eagle's medium (DMEM) supplemented with 10% heat-inactivated fetal bovine serum (FBS) and 100 units/mL penicillin/streptomycin. Cells were cultured at 37° C. in humidified air containing 5% CO2. After inhibitor treatment (5 h), the cells were washed twice in cold phosphate-buffered saline (PBS) and then lysed for 10 min on ice in lysis buffer (20 mM Tris-HCl pH 7.5, 150 mM NaCl, 1% Triton, 1 mM Na2EDTA, 1 mM EGTA, 2.5 mM sodium pyrophosphate, 1 mM β-glycerophosphate, 1 mM Na3VO4, 1 μg/mL leupeptin, 1 mM PMSF, and common protease inhibitors). Subsequently, cells were centrifuged for 20 min at 20000×g and 4° C. The supernatant was subjected to immunoblot analysis.
(§2) Protein concentration was measured using a spectrophotometer (ND-1000, peQLab). Equal amounts of protein were separated by SDS-PAGE and transferred to nitrocellulose membranes. […] After washing, blots were incubated with secondary antibodies and then detected on film using the enhanced chemiluminescence (ECL) detection system.
(§3) Applicants monitored the phosphorylation state of Y416—an autophosphorylation site in the activation loop of cSrc—and Y576/Y577—two residues in the activation loop of focal adhesion kinase (FAK). […]

[5] = tested on: DU145 cells; experiment: immunoblot analysis of pSrc and pFAK in DU145 cells; format: cell-based; settings: 5 hr treatment; 11c 1, 2, 5, 10 μM, dasatinib 100 nM
Description: as §1, §2, §3

[6] = tested on: PC3 cells; experiment: cell-to-cell contacts by light microscopy, PC3 cells; format: cell-based; settings: 24 hours treatment; 11c 10 μM, dasatinib 100 nM
Description: (§4) Reduction of cell-to-cell-contacts and cell proliferation in PC3 and DU145 cells by (11c, RL46). […] Total expression of FAK was unchanged while cSrc expression was increased in both cell lines. (b). Cell-to-cell contacts visualized by light microscopy at 10× magnification.

[7] = tested on: DU145 cells; experiment: cell-to-cell contacts by light microscopy, DU145 cells; format: cell-based; settings: 24 hours treatment; 11c 10 μM, dasatinib 100 nM
Description: as §4

[8] = biological target: T1, p38α; experiment: acrylodan-labeled p38α (ac-p38α) fluorescence binding assay, endpoint Kd measurements; settings: for Kd: pyrazolourea derivatives of BIRB-796, 50 nM ac-p38α, cuvettes
[9] = biological target: T2, cSrc (Gallus gallus, UniProt P00523, C277S/C483S/C496S/L407C); experiment: acrylodan-labeled cSrc fluorescence binding assay; parameters: species or system chicken; settings: any concentration
T2 construct: The chicken cSrc gene (residues 251-533); His tag with PreScission site (N, cleaved yes); made in house; host or cells: E. coli BL21(DE3) Codon+RIL
Description: Acrylodan-labeled cSrc (50 nM) was placed into cuvettes with a rapidly stirring mini stir bar while monitoring acrylodan fluorescence (left panel).
Crystal structures of chicken cSrc (kinase domain) in the DFG-in and DFG-out conformations were closely examined to identify a suitable fluorophore attachment site near the N-terminal end of the activation loop of cSrc which would report the binding of allosteric inhibitors by sensing changes in the activation loop conformation. Care was taken to not choose residues that were known phosphorylation sites or other sites that appeared to be critical to maintaining protein stability. A Cys was introduced into the chosen position (L407C) by site-directed mutagenesis while non-specific labeling was minimized by conservatively mutating other solvent exposed Cys into Ser (C277S, C483S, C496S).
Pure cSrc kinase containing the labeling site Cys mutation (L407C) and acrylodan (dissolved in DMF) were combined in buffer (pH 7.0) at a ratio of 1:1.5 protein:fluorophore and allowed to react in the dark overnight at 4° C. […] The labeled cSrc was then aliquoted, kept dark and frozen at −20° C.
Screening initiatives were carried out for acrylodan-labeled cSrc in 384-well plates. Stocks of candidate compounds were prepared in DMSO at 20× the final desired concentration. […]

Chain of p38α (Homo sapiens, UniProt Q16539) (Q16539 whole entry): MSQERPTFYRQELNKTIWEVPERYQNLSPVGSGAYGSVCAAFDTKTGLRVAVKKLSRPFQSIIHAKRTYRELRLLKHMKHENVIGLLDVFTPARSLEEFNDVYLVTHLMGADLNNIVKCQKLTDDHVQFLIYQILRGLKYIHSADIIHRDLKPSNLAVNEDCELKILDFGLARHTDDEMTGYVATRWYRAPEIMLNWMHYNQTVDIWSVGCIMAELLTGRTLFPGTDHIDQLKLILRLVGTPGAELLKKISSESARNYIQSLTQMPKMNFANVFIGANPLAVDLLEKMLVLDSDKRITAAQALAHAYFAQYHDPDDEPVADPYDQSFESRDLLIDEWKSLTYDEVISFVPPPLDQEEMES
T1 sequence (Q16539 whole entry C119S/C162S/A172C/F327L): as the sequence (Q16539 whole entry) above, with C119S, C162S, A172C, F327L counted along it

IC50 [1] [µM] | Kd [2] [µM] | SMILES | other results
25.6 ± 4.7 | 24.9 ± 4.9 | CCc1ccc(NCc2cc3cc(OC)c(OC)cc3n(CC(=O)Nc3cc(C)ccc3C)c2=O)cc1 [HTS 9] | 
> 50 | 3.1 ± 0.91 | O=C(CN1C(=O)c2cccc3cccc1c23)Nc1cccc(C(F)(F)F)c1 [HTS 5] | 
 |  | Cc1ccc(-n2nc(C(C)(C)C)cc2NC(=O)Nc2ccc(OCCN3CCOCC3)cc2)cc1 [15, RL39] | t1/2 of dissociation [3]: 11.2 min
 |  | Cc1nc(Nc2ncc(C(=O)Nc3c(C)cccc3Cl)s2)cc(N2CCN(CCO)CC2)n1 [Dasatinib] | real-time fluorescence response upon addition to ac-p38α [3]: instantaneous fluorescence response; pSrc and pFAK levels [4]: markedly reduced; pSrc and pFAK levels [5]: markedly reduced; cell-to-cell contacts and intact cells [6]: markedly reduced cell-to-cell-contacts and fewer intact cells; cell-to-cell contacts and intact cells [7]: markedly reduced cell-to-cell-contacts and fewer intact cells
1.1 ± 0.4 |  | O=C(CSc1cn(CCNC(=O)c2cccc(C(F)(F)F)c2)c2ccccc12)Nc1ccc2c(c1)OCCO2 [HTS 13] | 
 |  | Cc1cccc(-n2nc(C(C)(C)C)cc2NC(=O)Nc2ccc(Cl)cc2)c1 [12a, RL29] | t1/2 of dissociation [3]: 52.3 min
31.3 ± 17.2 | 29.4 ± 4 | Cc1ccc(NCc2cc3cc4c(cc3n(CC(=O)Nc3ccccc3F)c2=O)OCCO4)cc1 [HTS 10] | 
 |  | Cc1ccc(-n2nc(C(C)(C)C)cc2NC(=O)Nc2ccc(Cl)cc2)cc1 [12c, RL17] | Kd ([8]; read-out: Kd): 0.034 µM
11 ± 1.5 | 1.3 ± 0.08 | Cc1ccc(C(=O)NCCC23CC4CC(CC(C4)C2)C3)cc1NC1=NC2CS(=O)(=O)CC2S1 (stereo not drawn) [HTS 12] | t1/2 of binding ([3]; HTS hit, real-time kinetic measurement): ~0.633 min
 | 100 ± 5.8 | Clc1cccc(-c2nc3cnccn3c2NC2CCCCC2)c1 [HTS 14] | 
 |  | CC(C)(C)c1cc(NC(=O)Nc2ccc(Cl)cc2)n(-c2ccc(C(F)(F)F)cc2Cl)n1 [7, RL19] | fluorescence response of ac-p38α ([8]; endpoint measurements): complete lack of fluorescence response; Kd [8]: No Binding; fluorescence ratio response [9]: did not respond
> 50 | 10.3 ± 2.2 | Fc1cccc(COc2ccc(Nc3ncnc4ccccc34)cc2Cl)c1 [HTS 4] | 
2.6 ± 0.9 |  | CCOC(=O)c1c(C)c(C(=O)N2CCN(Cc3ccccc3)CC2)c(C)n1CC [HTS 8] | 
 |  | CNC(=O)c1cc(Oc2ccc(NC(=O)Nc3ccc(Cl)c(C(F)(F)F)c3)cc2)ccn1 [sorafenib, reference compound] | t1/2 of dissociation [3]: 2.4 min
 |  | Cc1ccc(-n2nc(C(C)(C)C)cc2NC(=O)Nc2ccc(Cl)cc2)cc1Cl [12b, RL18] | Kd ([8]; read-out: Kd): 0.018 µM
 |  | Cc1ccc(-n2nc(C(C)(C)C)cc2NC(=O)Nc2cccc3ccccc23)cc1 [14a, RL36] | Kd ([8]; read-out: Kd): 0.011 µM
 |  | Fc1ccc(-c2nc3n(c2-c2ccncc2)CCS3)cc1 [SKF86002, reference compound] | real-time fluorescence response upon addition to ac-p38α [3]: instantaneous response
 | 27.5 ± 5.3 | Brc1cccc(-c2nc3cnccn3c2NC2CCCC2)c1 [HTS 15] | 
2.6 ± 0.92 | 2.3 ± 0.57 | O=C(c1ccc(CSc2nc3ccncc3[nH]2)cc1)N1CCC(Cc2ccccc2)CC1 [HTS 11] | 
> 50 | 0.301 ± 0.059 | NS(=O)(=O)c1ccc(CCNc2nc3c(-c4cccc(C(F)(F)F)c4)nnn3c3ccccc23)cc1 [HTS 6] | 
15.3 ± 2.8 | 6.18 ± 2.31 | CC(=O)Nc1ccc(C(=O)Nc2ccc(-c3nc4cc(NC(=O)c5ccc(NC(C)=O)cc5)ccc4[nH]3)cc2)cc1 [HTS 7] | 
 |  | Cc1ccccc1-n1nc(C(C)(C)C)cc1NC(=O)Nc1ccc(Cl)cc1 [12D, RL15] | Kd ([8]; read-out: Kd): 0.347 µM

SMILES | IC50 [1] [µM] | Kd [2] [µM] | other results
COC(=O)C1=CO[C@@H](C)[C@H]2CN3CCc4c([nH]c5cc(OC)ccc45)[C@H]3C[C@@H]12 [HTS 3] | 18.3 ± 7.2 | 2.2 ± 0.11 | 

From patent US20110212475A1, “Fluorescently Or Spin-Labeled Kinases For Rapid Screening And Identification Of Novel Kinase Inhibitor Scaffolds” (priority 2008, published 2011)
